# From US8586110B2, “Therapeutic composition produced using Camellia sinensis leaves and hydrogen peroxide” (LiveLeaf, Inc., priority 2007, dated 2013)
# System: wild strain E-Coli
# Test: E-Coli culture turbidity over time (Experiment 4)
# Format: cell-based
# Conditions: 25 ppm hydrogen peroxide or equivalent concentration
# Experimental: A wild strain E-Coli culture was added to three samples. The sample A contained 25 ppm hydrogen peroxide in water. The sample B contained a solution of Formulation A diluted to equivalent 25 ppm hydrogen peroxide fraction. The sample C contained a solution having a green tea extract of the same concentration of Formulation A but without hydrogen peroxide.
compound,measurement,value
OO [hydrogen peroxide],antimicrobial effect on bacteria population (visual turbidity),initially reduced but began to exhibit increased visual turbidity after 16 hours
